Laboratory results: US20050120493A1, “Process for exchanging the anions of cationic compounds” (priority 2002, published 2005)

Assay: solubility in water of the dye salts before and after anion exchange
Format: physicochemical
Details: salt form of the cationic dye as given per example

water solubility	Compound
< 0.03%	Cn1cc[n+](C)c1/N=N/c1ccc(NCCCCCCNc2ccc(/N=N/c3n(C)cc[n+]3C)cc2)cc1.[Cl-].[Cl-]
less than 0.4%	CCN(CC)c1ccc2nc3ccc(=[N+](CC)CC)cc-3oc2c1
0.35%	COc1ccc(Nc2ccc(/N=N/c3n(C)cc[n+]3C)cc2)cc1.[Cl-]
3.7%	Cn1cc[n+](C)c1N=Nc1ccc(N)cc1.[Cl-]
